Experimental data as given in article PMC6318015 (Cancer research, 2018).

Target: BRD4 (Homo sapiens, UniProt O60885)
Test: PROTAC-induced BRD4 degradation in HCT116 cells, immunoblot, […] h
Type: cell-based

A DC50 of 23.1 nM was found for `Cc1ncsc1-c1ccc(CNC(=O)[C@@H]2C[C@@H](O)CN2C(=O)[C@@H](NC(=O)COCCCCOCCCOc2ccc(NC(=O)C[C@@H]3N=C(c4ccc(Cl)cc4)c4c(sc(C)c4C)-n4c(C)nnc43)cc2)C(C)(C)C)cc1` [A743] in this work.
